Measured values taken from US20190292167A1, “HETEROAROMATIC COMPOUNDS USEFUL FOR THE TREATMENT OF PROLIFERATIVE DISEASES” (Syros Pharmaceuticals, Inc., priority 2013, published 2019).
Read-outs that look alike come from different tables or passages of the source.

What was measured:
CDK7 = biological target: T1, CDK7 (Homo sapiens, UniProt P50613); assay: Adapta kinase assay (Life Technologies) against CDK7, co-factors cyclin H and MNAT1; assay type: biochemical; conditions: read-out: CDK7 Inhibition
T1 construct: purchased Life Technologies (Adapta kinase assay service)
Experimental: Compounds of the invention were assayed for activity against CDK7 at Life Technologies™ (Grand Island, N.Y.) using their commercially available Adapta® kinase assay services. […] Details of the assay, including the substrate used for CDK7 kinase, are available on the Life Technologies web site (http://www.lifetechnologies.com/us/en/homellife-science/drug-discovery/target-and-lead-identification-and-validation/kinasebiology/kinase-activity-assays.html).
The co-factors used for the assay were cyclin H and MNAT1.

Jurkat = assay: Inhibition of cell proliferation, CellTiter-Glo, 72 hour; assay type: cell-based; conditions: Blood cancer cell line, 72 hour, read-out: Inhibition of Proliferation of Jurkat Cells
Experimental: The following cancer cell lines were tested with the media conditions indicated: […]

T1 sequence (P50613 whole entry): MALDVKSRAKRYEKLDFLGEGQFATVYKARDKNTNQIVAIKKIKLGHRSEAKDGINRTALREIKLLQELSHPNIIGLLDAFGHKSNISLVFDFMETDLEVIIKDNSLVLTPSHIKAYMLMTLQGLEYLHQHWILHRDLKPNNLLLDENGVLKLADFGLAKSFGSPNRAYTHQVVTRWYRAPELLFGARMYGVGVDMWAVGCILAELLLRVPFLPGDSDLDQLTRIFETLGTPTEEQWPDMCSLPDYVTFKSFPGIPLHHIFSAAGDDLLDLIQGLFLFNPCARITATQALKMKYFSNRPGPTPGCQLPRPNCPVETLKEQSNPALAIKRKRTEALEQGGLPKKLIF
T1 sequence (P51946 whole entry partner): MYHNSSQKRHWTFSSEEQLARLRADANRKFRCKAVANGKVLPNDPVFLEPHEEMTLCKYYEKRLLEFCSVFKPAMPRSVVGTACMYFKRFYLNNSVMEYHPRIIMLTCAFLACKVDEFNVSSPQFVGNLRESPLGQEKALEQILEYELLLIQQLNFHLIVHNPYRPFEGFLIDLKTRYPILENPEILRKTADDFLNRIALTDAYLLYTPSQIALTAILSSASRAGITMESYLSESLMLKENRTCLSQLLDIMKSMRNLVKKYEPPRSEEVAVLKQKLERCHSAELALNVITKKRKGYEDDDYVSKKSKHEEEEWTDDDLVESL
T1 sequence (P51948 whole entry partner): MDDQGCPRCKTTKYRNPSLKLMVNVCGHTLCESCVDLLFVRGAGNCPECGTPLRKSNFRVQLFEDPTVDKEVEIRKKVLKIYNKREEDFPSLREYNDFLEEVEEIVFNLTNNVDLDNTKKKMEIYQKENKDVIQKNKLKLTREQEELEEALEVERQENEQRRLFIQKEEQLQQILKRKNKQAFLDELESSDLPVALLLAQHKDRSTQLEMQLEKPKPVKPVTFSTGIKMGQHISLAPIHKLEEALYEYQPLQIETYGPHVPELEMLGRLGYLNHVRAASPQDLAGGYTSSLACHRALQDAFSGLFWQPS

| SMILES | IC50 (CDK7) [nM] | IC50 (Jurkat) [nM] | IC50 (Jurkat; Homo sapiens, Jurkat, 72 h) [nM] |
| --- | --- | --- | --- |
| CN(C)C/C=C/C(=O)Nc1ccc(C(=O)N[C@@H]2CC[C@H](Nc3ncc(Cl)c(-c4cc[nH]n4)n3)C2)cc1.CN(C)C/C=C/C(=O)Nc1ccc(C(=O)N[C@H]2CC[C@@H](Nc3ncc(Cl)c(-c4cc[nH]n4)n3)C2)cc1 (mixture of isomers) [Compound 124, N-((1R,3S)-3-((5-chloro-4-(1H-pyrazol-3-yl)pyrimidin-2-yl)amino)cyclopentyl)-4-((E)-4-(dimethylamino)but-2-enamido)benzamide and N-((1S,3R)-3-((5-chloro-4-(1H-pyrazol-3-yl)pyrimidin-2-yl)amino)cyclopentyl)-4-((E)-4-(dimethylamino)but-2-enamido)benzamide] | > 1000 | > 5000 | – |
| CN(C)C/C=C/C(=O)Nc1ccc(C(=O)N[C@H]2C[C@@H](Nc3ncc(Cl)c(-c4c[nH]c5ccccc45)n3)CN(C)C2)cc1 (racemic) [161/162, N-[(3S)-5-[[5-chloro-4-(1H-indol-3-yl)pyrimidin-2-yl]amino]-1-methyl-3-piperidyl]-4-[[(E)-4-(dimethylamino)but-2-enoyl]amino]benzamide] | < 100 | – | – |
| CN(C)C/C=C/C(=O)Nc1ccc(C(=O)N[C@@H]2CC[C@H](Nc3ncc(Cl)c(-c4c[nH]c5ccccc45)n3)C2)cc1 (racemic) [Compound 120, N-((1R,3S)-3-((5-chloro-4-(1H-indol-3-yl)pyrimidin-2-yl)amino)cyclopentyl)-4-((E)-4-(dimethylamino)but-2-enamido)benzamide and N-((1S,3R)-3-((5-chloro-4-(1H-indol-3-yl)pyrimidin-2-yl)amino)cyclopentyl)-4-((E)-4-(dimethylamino)but-2-enamido)benzamide] | 100 to 1000 | – | < 500 |
| Cc1noc(C)c1-c1nc(N[C@H]2CC[C@@H](NC(=O)c3ccc(NC(=O)/C=C/CN(C)C)cc3)C2)ncc1Cl (racemic) [Compound 122, N-((1R,3S)-3-((5-chloro-4-(3,5-dimethylisoxazol-4-yl)pyrimidin-2-yl)amino)cyclopentyl)-4-((E)-4-(dimethylamino)but-2-enamido)benzamide and N-((1S,3R)-3-((5-chloro-4-(3,5-dimethylisoxazol-4-yl)pyrimidin-2-yl)amino)cyclopentyl)-4-((E)-4-(dimethylamino)but-2-enamido)benzamide] | 100 to 1000 | – | < 500 |
| CN(C)C/C=C/C(=O)Nc1ccc(C(=O)N[C@@H]2CC[C@H](Nc3ncc(Cl)c(-c4cccnc4)n3)C2)cc1 (racemic) [Compound 123, N-((1R,3S)-3-((5-chloro-4-(pyridin-3-yl)pyrimidin-2-yl)amino)cyclopentyl)-4-((E)-4-(dimethylamino)but-2-enamido)benzamide and N-((1S,3R)-3-((5-chloro-4-(pyridin-3-yl)pyrimidin-2-yl)amino)cyclopentyl)-4-((E)-4-(dimethylamino)but-2-enamido)benzamide] | 100 to 1000 | – | < 500 |
| Cc1[nH]c2ccccc2c1-c1nc(N[C@@H]2CC[C@H](NC(=O)c3ccc(NC(=O)/C=C/CN(C)C)cc3)C2)ncc1Cl (racemic) [Compound 126, N-((1R,3S)-3-((5-chloro-4-(2-methyl-1H-indol-3-yl)pyrimidin-2-yl)amino)cyclopentyl)-4-((E)-4-(dimethylamino)but-2-enamido)benzamide and N-((1S,3R)-3-((5-chloro-4-(2-methyl-1H-indol-3-yl)pyrimidin-2-yl)amino)cyclopentyl)-4-((E)-4-(dimethylamino)but-2-enamido)benzamide] | < 100 | – | < 500 |
| Cc1nc(C)c(-c2nc(N[C@H]3CC[C@@H](NC(=O)c4ccc(NC(=O)/C=C/CN(C)C)cc4)C3)ncc2Cl)s1 (racemic) [Compound 128, N-((1R,3S)-3-((5-chloro-4-(2,4-dimethylthiazol-5-yl)pyrimidin-2-yl)amino)cyclopentyl)-4-((E)-4-(dimethylamino)but-2-enamido)benzamide and N-((1S,3R)-3-((5-chloro-4-(2,4-dimethylthiazol-5-yl)pyrimidin-2-yl)amino)cyclopentyl)-4-((E)-4-(dimethylamino)but-2-enamido)benzamide] | 100 to 1000 | – | 500 to 5000 |
| CN(C)CC=CC(=O)Nc1ccc(C(=O)NC2CNCC(Nc3ncc(Cl)c(-c4c[nH]c5ccccc45)n3)C2)cc1 (racemic) [Compound 149, N-((+/−cis)-5-((5-chloro-4-(1H-indol-3-yl)pyrimidin-2-yl)amino)piperidin-3-yl)-4-((E)-4-(dimethylamino)but-2-enamido)benzamide] | < 100 | – | 500 to 5000 |
| CN(C)CC=CC(=O)Nc1ccc(C(=O)NC2CNCC(Nc3ncc(Cl)c(-c4c[nH]c5ccccc45)n3)C2)cc1 (racemic) [Compound 150, N-((+/−trans)-5-((5-chloro-4-(1H-indol-3-yl)pyrimidin-2-yl)amino)piperidin-3-yl)-4-((E)-4-(dimethylamino)but-2-enamido)benzamide] | < 100 | < 500 | – |
| C=CC(=O)Nc1ccc(CNC(=O)[C@@H]2CNC[C@H](Nc3ncc(Cl)c(-c4c[nH]c5ccccc45)n3)C2)cc1 (relative stereo) [Compound 152, (+/−cis)-N-(4-acrylamidobenzyl)-5-((5-chloro-4-(1H-indol-3-yl)pyrimidin-2-yl)amino)piperidine-3-carboxamide] | < 100 | 500 to 5000 | – |
| Nc1ccc(C(=O)N2CC[C@H](Nc3ncc(Cl)c(-c4c[nH]c5ccccc45)n3)C2)cc1 [Compound 24, (4-aminophenyl)((S)-3-(5-chloro-4-(1H-indol-3-yl)pyrimidin-2-ylamino)pyrrolidin-1-yl)methanone] | 100 to 1000 | – | > 5000 |
| N#Cc1cnc(NC2CCN(C(=O)c3ccc(N)cc3)CC2)nc1-c1c[nH]c2ccccc12 [Compound 26, 2-(1-(4-aminobenzoyl)piperidin-4-ylamino)-4-(1H-indol-3-yl)pyrimidine-5-carbonitrile] | 100 to 1000 | – | 500 to 5000 |
| CN(C)C/C=C/C(=O)Nc1ccc(C(=O)N[C@H]2CC[C@@H](Nc3ncc(Cl)c(-c4c[nH]c5ccccc45)n3)C2)cc1 [Compound 130, N-((1S,3R)-3-((5-chloro-4-(1H-indol-3-yl)pyrimidin-2-yl)amino)cyclopentyl)-4-((E)-4-(dimethylamino)but-2-enamido)benzamide] | – | – | < 500 |

Results, then the compound that gave them:

| IC50 (CDK7) [nM] | IC50 (Jurkat) [nM] | IC50 (Jurkat; Homo sapiens, Jurkat, 72 h) [nM] | SMILES |
| --- | --- | --- | --- |
| < 100 | – | < 500 | C=CC(=O)Nc1ccc(CNC(=O)[C@H]2CNCC(Nc3ncc(Cl)c(-c4c[nH]c5ccccc45)n3)C2)cc1 (mixture of isomers) [Compound 151, (+/−trans)-N-(4-acrylamidobenzyl)-5-((5-chloro-4-(1H-indol-3-yl)pyrimidin-2-yl)amino)piperidine-3-carboxamide] |
| < 100 | – | < 500 | C=CC(=O)Nc1ccc(NC(=O)C2CNCC(Nc3ncc(Cl)c(-c4c[nH]c5ccccc45)n3)C2)cc1 (racemic) [Compound 153, (+/−cis)-N-(4-acrylamidophenyl)-5-((5-chloro-4-(1H-indol-3-yl)pyrimidin-2-yl)amino)piperidine-3-carboxamide] |
| < 100 | – | < 500 | C=CC(=O)Nc1ccc(NC(=O)[C@H]2CNCC(Nc3ncc(Cl)c(-c4c[nH]c5ccccc45)n3)C2)cc1 (mixture of isomers) [Compound 154, (+/−trans)-N-(4-acrylamidophenyl)-5-((5-chloro-4-(1H-indol-3-yl)pyrimidin-2-yl)amino)piperidine-3-carboxamide] |
| < 100 | – | < 500 | C=CC(=O)Nc1ccc(CNC(=O)C2CC(Nc3ncc(Cl)c(-c4c[nH]c5ccccc45)n3)CN(C)C2)cc1 (racemic) [Compound 157, (+/−cis)-N-(4-acrylamidobenzyl)-5-((5-chloro-4-(1H-indol-3-yl)pyrimidin-2-yl)amino)-1-methylpiperidine-3-carboxamide] |
| 100 to 1000 | 500 to 5000 | – | C=CC(=O)Nc1ccc(CNC(=O)[C@H]2C[C@H](Nc3ncc(Cl)c(-c4c[nH]c5ccccc45)n3)CN(C)C2)cc1 (relative stereo) [Compound 155, (+/−trans)-N-(4-acrylamidobenzyl)-5-((5-chloro-4-(1H-indol-3-yl)pyrimidin-2-yl)amino)-1-methylpiperidine-3-carboxamide] |
| 100 to 1000 | – | – | C=CC(=O)Nc1ccc(NC(=O)[C@@H]2C[C@@H](Nc3ncc(Cl)c(-c4c[nH]c5ccccc45)n3)CN(C)C2)cc1 (relative stereo) [Compound 159, (Trans)-N-(4-acrylamidophenyl)-5-((5-chloro-4-(1H-indol-3-yl)pyrimidin-2-yl)amino)-1-methylpiperidine-3-carboxamide] |
| < 100 | – | – | C=CC(=O)Nc1ccc(NC(=O)[C@H]2C[C@@H](Nc3ncc(Cl)c(-c4c[nH]c5ccccc45)n3)CN(C)C2)cc1 (relative stereo) [Compound 160, (Cis)-N-(4-acrylamidophenyl)-5-((5-chloro-4-(1H-indol-3-yl)pyrimidin-2-yl)amino)-1-methylpiperidine-3-carboxamide] |
| 100 to 1000 | – | – | CS(=O)(=O)NC/C=C/C(=O)Nc1ccc(CN2CCC(Nc3ncc(Cl)c(-c4c[nH]c5ccccc45)n3)CC2)cc1 [Compound 158, (E)-N-(4-((4-((5-chloro-4-(1H-indol-3-yl)pyrimidin-2-yl)amino)piperidin-1-yl)methyl)phenyl)-4-(methylsulfonamido)but-2-enamide] |
| – | – | > 5000 | Nc1ccc(C(=O)NC2CC3(C2)CC(Nc2ncc(Cl)c(-c4c[nH]c5ccccc45)n2)C3)cc1 (centres unmarked) [Compound 318, 4-amino-N-(6-((5-chloro-4-(1H-indol-3-yl)pyrimidin-2-yl)amino)spiro[3.3]heptan-2-yl)benzamide] |
